In test [1] the target is Serine/threonine-protein kinase B-raf [V600E] (Homo sapiens, UniProt P15056, V600E). Description: Not found.
Test [2] has as its target RAF proto-oncogene serine/threonine-protein kinase [Y340D,Y341D] (Homo sapiens, UniProt P04049, Y340D/Y341D). Description: Not found.
From the text: Not found

SMILES strings stand for the structures.

RAF proto-oncogene serine/threonine-protein kinase [Y340D,Y341D], sequence (P04049 whole entry Y340D/Y341D): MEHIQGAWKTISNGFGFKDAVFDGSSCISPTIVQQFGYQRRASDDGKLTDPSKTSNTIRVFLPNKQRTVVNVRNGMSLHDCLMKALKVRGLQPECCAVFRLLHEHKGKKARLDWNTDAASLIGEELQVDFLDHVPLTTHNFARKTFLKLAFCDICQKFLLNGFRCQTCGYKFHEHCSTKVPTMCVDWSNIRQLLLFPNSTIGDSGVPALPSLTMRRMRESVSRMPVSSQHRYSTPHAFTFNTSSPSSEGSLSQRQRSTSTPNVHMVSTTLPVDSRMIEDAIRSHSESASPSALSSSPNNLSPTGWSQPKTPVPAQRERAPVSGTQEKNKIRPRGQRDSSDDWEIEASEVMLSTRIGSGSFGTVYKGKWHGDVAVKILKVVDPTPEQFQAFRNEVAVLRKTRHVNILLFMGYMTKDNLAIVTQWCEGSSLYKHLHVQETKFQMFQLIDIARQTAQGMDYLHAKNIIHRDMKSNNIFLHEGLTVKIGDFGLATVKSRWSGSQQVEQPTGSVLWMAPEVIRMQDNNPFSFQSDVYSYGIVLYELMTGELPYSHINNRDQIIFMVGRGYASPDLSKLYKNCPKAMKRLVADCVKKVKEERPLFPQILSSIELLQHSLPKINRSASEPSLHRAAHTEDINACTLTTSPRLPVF
Serine/threonine-protein kinase B-raf [V600E], sequence (P15056 2-766 V600E limits assumed): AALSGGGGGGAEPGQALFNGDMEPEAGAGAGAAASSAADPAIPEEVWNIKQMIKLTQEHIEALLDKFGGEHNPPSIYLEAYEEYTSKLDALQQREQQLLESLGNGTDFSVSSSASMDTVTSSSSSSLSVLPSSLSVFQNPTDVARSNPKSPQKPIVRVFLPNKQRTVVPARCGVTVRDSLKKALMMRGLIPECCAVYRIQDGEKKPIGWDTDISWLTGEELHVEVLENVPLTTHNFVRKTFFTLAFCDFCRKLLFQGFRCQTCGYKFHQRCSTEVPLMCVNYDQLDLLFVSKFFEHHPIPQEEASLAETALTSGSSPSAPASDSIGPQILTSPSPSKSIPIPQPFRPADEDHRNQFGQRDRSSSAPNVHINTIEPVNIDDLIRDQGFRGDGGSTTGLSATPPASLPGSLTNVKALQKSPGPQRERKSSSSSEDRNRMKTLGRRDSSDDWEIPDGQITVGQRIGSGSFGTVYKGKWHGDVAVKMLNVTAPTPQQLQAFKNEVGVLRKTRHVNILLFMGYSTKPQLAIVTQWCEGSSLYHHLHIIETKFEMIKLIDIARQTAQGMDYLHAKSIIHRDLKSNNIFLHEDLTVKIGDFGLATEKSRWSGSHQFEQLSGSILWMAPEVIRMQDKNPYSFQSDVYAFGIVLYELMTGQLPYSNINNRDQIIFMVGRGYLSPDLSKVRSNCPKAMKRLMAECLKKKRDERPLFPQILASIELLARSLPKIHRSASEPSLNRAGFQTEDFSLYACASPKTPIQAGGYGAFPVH

The term IC50 denotes the concentration that gives 50% inhibition. A low value points to higher potency. `CN(C)[C@H]1CCN(Cc2ccc(C(=O)N[C@@H]3[C@H]4Oc5ccc(Oc6ccnc7c6CCC(=O)N7)cc5[C@@H]34)cc2C(F)(F)F)C1` [US9670231, 1.9] gave a half-maximal inhibitory concentration (IC50) in test [1] of 17 nM. In other words, the double-digit nanomolar range.

For `CN(C)[C@@H]1CCN(Cc2ccc(C(=O)N[C@@H]3[C@H]4Oc5ccc(Oc6ccnc7c6CCC(=O)N7)cc5[C@@H]34)cc2C(F)(F)F)C1` [US9670231, 1.10], the IC50 in test [1] came to 14 nM. The IC50 values of the last two compounds are within 1.5-fold of each other.

Turning to `O=C1CCc2c(Oc3ccc4c(c3)[C@H]3[C@H](NC(=O)c5ccc(CN6CCC[C@H](O)C6)c(C(F)(F)F)c5)[C@H]3O4)ccnc2N1` [US9670231, 1.15], 6.2 nM corresponded to half-maximal inhibition in test [2] (IC50).

For the compound `O=C1CCc2c(Oc3ccc4c(c3)[C@H]3[C@H](NC(=O)c5ccc(CN6CCN(CCO)CC6)c(C(F)(F)F)c5)[C@H]3O4)ccnc2N1` [US9670231, 1.17], the IC50 in test [1] is 10.4 nM.

In the case of `CN(C)C1CCN(Cc2ccc(C(=O)N[C@@H]3[C@H]4Oc5ccc(Oc6ccnc7c6CCC(=O)N7)cc5[C@@H]34)cc2C(F)(F)F)CC1` [US9670231, 1.20], the half-maximal inhibitory concentration (IC50) in test [1] came out at 11 nM; in test [2], 2.1 nM.

Consider `CN1CCN(CCOc2ccc(C(=O)N[C@@H]3[C@H]4Oc5ccc(Oc6ccnc7c6CCC(=O)N7)cc5[C@@H]34)cc2C(F)(F)F)CC1` [US9670231, 1.52], for which the values for the 50% inhibitory concentration (IC50) in test [1] and in test [2] were 14 nM and 2.5 nM, respectively.

For the compound `CN1CCN(Cc2ccc(C(=O)N[C@@H]3[C@H]4Oc5ccc(Oc6ccnc7c6COC(=O)N7)cc5[C@@H]34)cc2C(F)(F)F)CC1` [US9670231, 2.2], 11 nM corresponded to half-maximal inhibition in test [1] (IC50).

(Values after BindingDB's records for patent US9670231 (BeiGene, Ltd, 2017).)
